In ChEMBL document CHEMBL3430912, “GSK Tres Cantos Anti-Kinetoplastid Screening (TCAKS) Data”:

What was measured:
Trypanosoma cruzi [1] = assay: (§1) GSK_TCAKS: pIC50 Trypanosoma cruzi Imaging: Infected Cells. […] Cells were then washed once with PBS before infection. T. cruzi trypomastigotes, collected at days 5 to 8 after infection from LLC-MK2 parasite infected cultures, were allowed to swim out for 4h at 37C from a centrifuged pellet (2,500 rpm/10 min/room temperature). Trypomastigotes were then collected and counted in a CASY Cell Counter. Trypomastigotes, in supplemented DMEM, were added to H9c2 cultures in a multiplicity of infection of 1 and incubated for 18 h. Cells were washed once with PBS before incubation of the infected H9c2 monolayer with trypsin (Life-Technologies) to detach cells from the flask. Cells were counted in a CASY Cell Counter using a 150 um capillary and their density set at 5 * 10^4 cells per mL in supplemented assay DMEM. Infected H9c2 were dispensed into 384-well poly-lysine coated assay plates at 50uL per well using a Multidrop Combi dispenser. After seeding them, the plates were incubated at 37C, 5% CO2 for 72h. Cultures were then fixed and stained by addition of 50 uL of a solution containing 8% formaldehyde and 4 uM DRAQ5 DNA dye (BioStatus, UK) per well. […] Five images were collected per well for reliable statistical analysis. Automated image analysis was performed with a script developed on Acapella High Content Imaging and Analysis Software (PerkinElmer). Output: percentage of infected cells per well as a second infection marker.; type: functional, organism-based, Rattus norvegicus; settings: H9c2, 4 h
Leishmania donovani [2] = assay: (§2) GSK_TCAKS: pIC50 Leishmania donovani Imaging: Amastigotes/Macrophages. Assay plates (384-well) were prepared by adding 250nL of compound to each well. For single shot assay, the final compound concentration was 5 uM. […] Automated image analysis was performed with a script developed on Acapella High Content Imaging and Analysis Software (PerkinElmer). Output: Average number of amastigotes per macrophage cell were reported for each well.; type: functional, organism-based, Homo sapiens; settings: THP-1
Trypanosoma cruzi [3] = assay: GSK_TCAKS: pIC50 Trypanosoma cruzi viability assay using beta-GAL activity. This assay was run at single shot at 5uM compound concentration per well. The biological reagents consisted of NIH-3T3 host cells and trypomastigotes parasitic cells; both cell types were set to a 3.3 * 10^5 cells/mL dilution in assay DMEM by means of a CASY cell counter device using a 60um capillary. 6 uL of the mixture were dispensed per well (about 1 * 10^3 host-cells and 1 * 10^3 parasites) with a Multidrop Combi dispenser. […] In all wells, the percentage of DMSO never exceeded 0.5%. Plates incubated for four days at 37C, 5% CO2. The substrate used for the assay fluorescence intensity (FLINT) readout was resorufin-beta-D-galactopiranoside (Sigma-Aldrich) at 5uM per well. It was diluted in PBS supplemented with the soft detergent Igepal (Fluka).; type: functional, organism-based, Mus musculus; settings: Tulahuen, NIH3T3
Leishmania donovani [4] = assay: as §2, with “Infected Macrophages.” for “Amastigotes/Macrophages.”, “Percent” for “Average number”, “infected” for “amastigotes per”, “cells” for “cell”; type: functional, organism-based, Homo sapiens; settings: THP-1
Trypanosoma cruzi [5] = assay: GSK_TCAKS: pIC50 Trypanosoma cruzi Imaging: Amastigotes/Cell. […] Cells were then washed once with PBS before infection. T. cruzi trypomastigotes, collected at days 5 to 8 after infection from LLC-MK2 parasite infected cultures, were allowed to swim out for 4h at 37C from a centrifuged pellet (2,500 rpm/10 min/room temperature). Trypomastigotes were then collected and counted in a CASY Cell Counter. Trypomastigotes, in supplemented DMEM, were added to H9c2 cultures in a multiplicity of infection of 1 and incubated for 18 h. Cells were washed once with PBS before incubation of the infected H9c2 monolayer with trypsin (Life-Technologies) to detach cells from the flask. Cells were counted in a CASY Cell Counter using a 150 um capillary and their density set at 5 * 10^4 cells per mL in supplemented assay DMEM. Infected H9c2 were dispensed into 384-well poly-lysine coated assay plates at 50uL per well using a Multidrop Combi dispenser. After seeding them, the plates were incubated at 37C, 5% CO2 for 72h. Cultures were then fixed and stained by addition of 50 uL of a solution containing 8% formaldehyde and 4 uM DRAQ5 DNA dye (BioStatus, UK) per well. […] Five images were collected per well for reliable statistical analysis. Automated image analysis was performed with a script developed on Acapella High Content Imaging and Analysis Software (PerkinElmer). Output: number of amastigotes per cell as infection level measurement.; type: functional, organism-based, Rattus norvegicus; settings: H9c2, 4 h
[6] = test system: Trypanosoma brucei brucei; assay: GSK_TCAKS: pIC50 Trypanosoma brucei viability assay using fluorescence intensity. Assay plates (1536-well) were prepared by dispensing 25nL of compound solution per well using an Echo acoustic dispenser (Labcyte).; type: functional, organism-based; settings: Lister 427, 2 h
Leishmania donovani [7] = assay: GSK_TCAKS: pIC50 Leishmania donovani viability assay using fluorescence intensity. Assay plates (1536-well) were prepared by adding 30nL per well of compound. For single shot assay, the final compound concentration was 5uM. […] Briefly, eGFP LdBOB axenic amastigotes were harvested, fixed and counted in a CASY cell counter (Roche-Applied Science). A final concentration of 1.5 * 10^5 cells per well were prepared in amastigote media containing 500 U/mL penicillin/streptomycin (Invitrogen) and 6uL was dispensed to each experimental well using a Multidrop Combi dispenser (Thermo Scientific). 6uL of assay media was dispensed to control columns used as reference for 100% compound response. Following incubation for 72 h at 37C, 5% CO2, 2 uL of resazurin was added to each well at a final concentration of 0.5 mM in phosphate buffered saline (PBS) with IGEPAL (Sigma-Aldrich), 0.05% (v/v).; type: functional, organism-based
[8] = molecular target: Sterol 14-alpha demethylase (Trypanosoma cruzi (strain CL Brener), UniProt Q7Z1V1); assay: GSK_TCAKS: pIC50 CYP51 from Trypanosoma cruzi.; type: functional
Sequence of Sterol 14-alpha demethylase (Q7Z1V1 whole entry): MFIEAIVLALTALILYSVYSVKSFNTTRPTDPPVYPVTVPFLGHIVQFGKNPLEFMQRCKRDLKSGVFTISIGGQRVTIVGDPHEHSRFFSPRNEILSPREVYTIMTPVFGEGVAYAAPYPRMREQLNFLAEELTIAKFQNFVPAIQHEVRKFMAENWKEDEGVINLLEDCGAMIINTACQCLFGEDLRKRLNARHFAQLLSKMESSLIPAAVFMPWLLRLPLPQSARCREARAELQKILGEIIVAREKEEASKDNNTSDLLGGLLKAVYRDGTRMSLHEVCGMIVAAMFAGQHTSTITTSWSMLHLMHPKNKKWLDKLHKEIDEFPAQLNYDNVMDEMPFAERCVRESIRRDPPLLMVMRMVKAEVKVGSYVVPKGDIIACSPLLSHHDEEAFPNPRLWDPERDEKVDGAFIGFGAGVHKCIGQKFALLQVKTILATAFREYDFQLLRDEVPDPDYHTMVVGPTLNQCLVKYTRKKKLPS

Leishmania donovani [9] = assay: as §2, with “THP-1 Host Macrophages.” for “Amastigotes/Macrophages.”, “THP-1” for “Average number of amastigotes per macrophage”, “cell count” for “cell”; type: functional, organism-based, Homo sapiens
Trypanosoma cruzi [10] = assay: as §1, with “H2C9” for “Trypanosoma cruzi”, “H9c2 Host Cardiomyocytes.” for “Infected Cells.”, “Number” for “percentage”, “H9c2 Host Cardiomyocytes nuclei to determine drug-related cytotoxicity.” for “infected cells per well as a second infection marker.”; type: functional, organism-based, Rattus norvegicus; settings: H9c2, 4 h
[11] = GSK_TCAKS: pIC50 HepG2 human cell line viability assay using luminiscence. […] Seeding density was checked to ensure that new mono-layers were not more than 50% confluent at the time of harvesting. Cell suspension was added to 500 mL of the same medium at a final density of 1.2 * 10^5 cells/mL. This cell suspension was dispensed (25 uL, 3000 cells per well) into 384-well clear-bottom plates using a Multidrop Combi dispenser. Prior to addition of the cell suspension, the screening compounds (250 nL) were pre-dispensed into the plates with an Echo liquid handler. Plates were incubated for 48 h at 37C, 5% CO2. After incubation, plates equilibrated at room temperature for 30 min before proceeding to develop the luminescent signal. The signal developer, CellTiter-Glo Reagent, was allowed to equilibrate at room temperature for 30 min and added to the plates (25uL per well) using a Multidrop Combi dispenser. Plates were left for 10 min at room temperature for stabilization and then read using a ViewLux.; type: toxicity, cell-based
[12] = test system: Trypanosoma brucei brucei; assay: GSK_TCAKS: pIC50 Trypanosoma brucei viability assay using luminiscence. Assay plates (1536-well) were prepared. T. brucei cultures were harvested and counted in a CASY cell counter. A parasite suspension was prepared at a final concentration of 5 * 10^4 cells/mL in complete HMI9 medium and 6uL was dispensed to all wells containing compounds using a Multidrop Combi dispenser. 6uL of HMI9 media with 0.4% DMSO were dispensed to control columns. Plates were incubated for 24 h at 37C, 5% CO2 then tempered for 10 min at room temperature. ATP content was quantified by adding 4 uL of CellTiter-Glo Reagent (Promega) according to the manufacturer's instructions. Luminescence was measured using a ViewLux.; type: functional, organism-based; settings: Lister 427, CASY

## N#Cc1cc(-c2ccnc(Nc3cccc(CN4CCOCC4)c3)n2)ccc1NCCN
Trypanosoma cruzi [1]
  IC50: 31600 nM
Leishmania donovani [2]
  IC50: 794 nM
Trypanosoma cruzi [3]
  IC50: 7940 nM
Leishmania donovani [4]
  IC50: 1580 nM
Trypanosoma cruzi [5]
  IC50: 15800 nM
[6]
  IC50: 398 nM
Leishmania donovani [7]
  IC50: 3.98 µM
[8]
  IC50: 31.6 µM
Leishmania donovani [9]
  IC50: 7.94 µM
Trypanosoma cruzi [10]
  IC50: 7.94 µM
[11]
  IC50 at 48 h: 50.1 µM
[12]
  IC50: 1260 nM

## CN(C)Cc1cccc(Nc2nccc(-c3ccc(NCCN)c(C#N)c3)n2)c1
Trypanosoma cruzi [1]
  IC50: 10000 nM
Leishmania donovani [2]
  IC50: 501 nM
Trypanosoma cruzi [3]
  IC50: 1000 nM
Leishmania donovani [4]
  IC50: 1260 nM
Trypanosoma cruzi [5]
  IC50: 1580 nM
[6]
  IC50: 50.1 nM
Leishmania donovani [7]
  IC50: 2.51 µM
[8]
  IC50: 6.31 µM
Leishmania donovani [9]
  IC50: 6.31 µM
Trypanosoma cruzi [10]
  IC50: 2 µM
[11]
  IC50 at 48 h: 25.1 µM
[12]
  IC50: 200 nM

## O=C(CC1(O)C(=O)N(Cc2cccs2)c2ccc(Br)cc21)c1cccnc1 (stereo not drawn)
Trypanosoma cruzi [1]
  IC50: 39800 nM
Leishmania donovani [2]
  IC50: > 50100 nM
Trypanosoma cruzi [3]
  IC50: 5010 nM
Leishmania donovani [4]
  IC50: > 50100 nM
Trypanosoma cruzi [5]
  IC50: 25100 nM
[6]
  IC50: 631 nM
Leishmania donovani [7]
  IC50: > 50.1 µM
[8]
  IC50: 12.6 µM
Leishmania donovani [9]
  IC50: 20 µM
Trypanosoma cruzi [10]
  IC50: 3.98 µM
[11]
  IC50 at 48 h: 63.1 µM
[12]
  IC50: 794 nM

## COc1cnc2ccc(=O)n(CCN3CCC(NC/C=C/c4cc(F)ccc4F)CC3)c2c1
Trypanosoma cruzi [1]
  IC50: 20 nM
Leishmania donovani [2]
  IC50: 2000 nM
Trypanosoma cruzi [3]
  IC50: 15.8 nM
Leishmania donovani [4]
  IC50: 5010 nM
Trypanosoma cruzi [5]
  IC50: 10 nM
[6]
  IC50: 398 nM
Leishmania donovani [7]
  IC50: 5.01 µM
[8]
  IC50: 15.8 µM
Leishmania donovani [9]
  IC50: 39.8 µM
Trypanosoma cruzi [10]
  IC50: 15.8 µM
[11]
  IC50 at 48 h: 63.1 µM
[12]
  IC50: 794 nM

## Cc1cc2cc(CNc3ccc4c(c3)OCO4)c(=O)n(CCO)c2cc1C
Trypanosoma cruzi [1]
  IC50: 251 nM
Leishmania donovani [2]
  IC50: 251 nM
Trypanosoma cruzi [3]
  IC50: 631 nM
Leishmania donovani [4]
  IC50: 501 nM
Trypanosoma cruzi [5]
  IC50: 200 nM
[6]
  IC50: 25100 nM
Leishmania donovani [7]
  IC50: 6.31 µM
[8]
  IC50: 10 µM
Leishmania donovani [9]
  IC50: 39.8 µM
Trypanosoma cruzi [10]
  IC50: > 50.1 µM
[11]
  IC50 at 48 h: > 100 µM
[12]
  IC50: > 39800 nM

## Cc1nn2c(=O)c3c([nH]c2c1-c1ccc(Br)cc1)CCCC3
Trypanosoma cruzi [1]
  IC50: 1580 nM
Leishmania donovani [2]
  IC50: 39800 nM
Trypanosoma cruzi [3]
  IC50: 1000 nM
Leishmania donovani [4]
  IC50: > 50100 nM
Trypanosoma cruzi [5]
  IC50: 794 nM
[6]
  IC50: 398 nM
Leishmania donovani [7]
  IC50: 10 µM
[8]
  IC50: > 100 µM
Leishmania donovani [9]
  IC50: > 50.1 µM
Trypanosoma cruzi [10]
  IC50: > 50.1 µM
[11]
  IC50 at 48 h: > 100 µM
[12]
  IC50: 794 nM

## COc1ccc(C(=O)NC2CCN(CCn3c(=O)ccc4ncc(F)cc43)CC2)cc1Cl
Trypanosoma cruzi [1]
  IC50: 631 nM
Leishmania donovani [2]
  IC50: 15800 nM
Trypanosoma cruzi [3]
  IC50: 501 nM
Leishmania donovani [4]
  IC50: > 50100 nM
Trypanosoma cruzi [5]
  IC50: 316 nM
[6]
  IC50: 126 nM
Leishmania donovani [7]
  IC50: 3.98 µM
[8]
  IC50: 15.8 µM
Leishmania donovani [9]
  IC50: > 50.1 µM
Trypanosoma cruzi [10]
  IC50: > 50.1 µM
[11]
  IC50 at 48 h: > 100 µM
[12]
  IC50: 251 nM

## c1ccc2[nH]c(-c3ccc(N4CCCC4)nc3)nc2c1
Trypanosoma cruzi [1]
  IC50: 1580 nM
Leishmania donovani [2]
  IC50: > 50100 nM
Trypanosoma cruzi [3]
  IC50: 1000 nM
Leishmania donovani [4]
  IC50: > 50100 nM
Trypanosoma cruzi [5]
  IC50: 1000 nM
[6]
  IC50: 794 nM
Leishmania donovani [7]
  IC50: 5.01 µM
[8]
  IC50: > 100 µM
Leishmania donovani [9]
  IC50: 31.6 µM
Trypanosoma cruzi [10]
  IC50: > 50.1 µM
[11]
  IC50 at 48 h: > 100 µM
[12]
  IC50: 1000 nM

## CC(c1ccc2c(c1)CCCC2)N(C)c1ncc2c(N)nc(N)nc2n1 (stereo not drawn)
Trypanosoma cruzi [1]
  IC50: 31.6 nM
Leishmania donovani [2]
  IC50: 794 nM
Trypanosoma cruzi [3]
  IC50: 31.6 nM
Leishmania donovani [4]
  IC50: 2000 nM
Trypanosoma cruzi [5]
  IC50: 10 nM
[6]
  IC50: 15800 nM
Leishmania donovani [7]
  IC50: 2.51 µM
[8]
  IC50: 25.1 µM
Leishmania donovani [9]
  IC50: 25.1 µM
Trypanosoma cruzi [10]
  IC50: 10 µM
[11]
  IC50 at 48 h: 50.1 µM
[12]
  IC50: 12600 nM
